# How the values were obtained:
# human CYP11B2 = human CYP11B2 (Homo sapiens (Human), UniProt P19099); experiment: V79-Human-CYP11B2 Assay; type: cell-based; settings: V79MZh11B2 cells, substrate deoxycorticosterone 100 nM, 50 min incubation
# Procedure: (§1) V79MZh11B1 and V79MZh11B2 cells (8×10^5 cells/well) were grown on 24-well culture plates until confluence. Before testing, the DMEM culture medium was removed and 450 μl of fresh DMEM containing the inhibitor was added to each well. After a preincubation step of 60 min at 37° C., the reaction was started by the addition of 50 μl of DMEM in which the substrate deoxycorticosterone (containing 0.15 μCi of [1,2-3H]-deoxycorticosterone in ethanol, final test concentration 100 nM) was dissolved. Incubation times were 25 min for V79MZh11B1 and 50 min for V79MZh11B2 cells at 37° C., respectively. The enzyme reactions were stopped by extracting the supernatant with ethyl acetate. Samples were centrifuged (10.000 g, 5 min) and the solvent was pipetted into fresh cups. After evaporation of the solvent, the steroids were redissolved in 40 μl of […] and analyzed by HPLC. Detection and quantification of the steroids were performed using a radioflow detector. To first estimate the different IC50 values, five different concentrations ranging from 1 to 10.000 nM were measured. For the following IC50 determination, three different concentrations (repeat-determinations) were measured for each […] value of each inhibitor in which the second concentration led to an inhibition of approximately 40 to 60%. […] The final IC50 value was estimated as the average of three or four independent IC50 values and a selectivity factor corresponding to the ratio between the […] values of CYP11B1 and CYP11B2 was calculated for each substance.
# human CYP11B1 = human CYP11B1 (Homo sapiens (Human), UniProt P15538); experiment: V79-Human-CYP11B1 Assay; type: cell-based; settings: V79MZh11B1 cells, substrate deoxycorticosterone 100 nM, 25 min incubation
# Procedure: as §1
# Sequence of human CYP11B2 (P19099 25-503): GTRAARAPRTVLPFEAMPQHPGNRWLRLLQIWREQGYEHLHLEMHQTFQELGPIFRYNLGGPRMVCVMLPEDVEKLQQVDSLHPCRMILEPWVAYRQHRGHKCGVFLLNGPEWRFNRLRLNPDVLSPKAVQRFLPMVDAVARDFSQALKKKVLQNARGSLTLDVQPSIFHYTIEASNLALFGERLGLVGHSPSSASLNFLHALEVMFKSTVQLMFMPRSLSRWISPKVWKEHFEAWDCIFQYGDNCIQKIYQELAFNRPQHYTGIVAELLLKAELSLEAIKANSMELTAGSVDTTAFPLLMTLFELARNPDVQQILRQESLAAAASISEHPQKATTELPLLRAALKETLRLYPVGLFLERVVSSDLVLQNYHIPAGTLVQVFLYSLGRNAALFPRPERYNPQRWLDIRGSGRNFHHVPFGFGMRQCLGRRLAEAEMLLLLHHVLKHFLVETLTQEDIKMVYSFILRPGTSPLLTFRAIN
# Sequence of human CYP11B1 (P15538 25-503): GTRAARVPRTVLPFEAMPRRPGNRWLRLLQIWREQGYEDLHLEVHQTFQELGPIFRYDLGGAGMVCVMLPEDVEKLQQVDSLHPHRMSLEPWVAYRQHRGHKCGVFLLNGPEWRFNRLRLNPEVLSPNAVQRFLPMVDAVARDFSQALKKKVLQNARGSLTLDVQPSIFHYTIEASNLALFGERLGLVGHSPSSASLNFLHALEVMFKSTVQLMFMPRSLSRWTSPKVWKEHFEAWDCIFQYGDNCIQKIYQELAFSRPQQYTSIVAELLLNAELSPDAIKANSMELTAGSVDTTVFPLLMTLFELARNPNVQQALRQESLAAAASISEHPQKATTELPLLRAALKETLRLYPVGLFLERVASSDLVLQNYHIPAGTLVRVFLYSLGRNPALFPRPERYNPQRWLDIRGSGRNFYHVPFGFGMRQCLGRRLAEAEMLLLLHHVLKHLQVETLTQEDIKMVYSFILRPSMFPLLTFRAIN
Compound,IC50 (human CYP11B2),IC50 (human CYP11B1)
"Cc1nnc2n1-c1c(F)cc(-c3cncc(F)c3C(C)C)cc1CC2 [Example 3, 9-fluoro-7-(5-fluoro-4-isopropylpyridin-3-yl)-1-methyl-4,5-dihydro-[1,2,4]triazolo[4,3-a]quinoline]",9.5 nM,3970 nM
"Cc1nnc2n1-c1c(F)cc(-c3cncc(F)c3C3CC3)cc1CC2 [Example 1, 7-(4-cyclopropyl-5-fluoropyridin-3-yl)-9-fluoro-1-methyl-4,5-dihydro-[1,2,4]triazolo[4,3-a]quinoline]",7.3 nM,2290 nM
"Cc1c(F)cncc1-c1cc(F)c2c(c1)CCc1nnc(C)n1-2 [Example 2, 9-fluoro-7-(5-fluoro-4-methylpyridin-3-yl)-1-methyl-4,5-dihydro-[1,2,4]triazolo[4,3-a]quinoline]",6 nM,1420 nM
"Cc1nnc2n1-c1c(F)cc(-c3cncc(F)c3Cl)cc1CC2 [Example 4, 7-(4-chloro-5-fluoropyridin-3-yl)-9-fluoro-1-methyl-4,5-dihydro-[1,2,4]triazolo[4,3-a]quinoline]",21.6 nM,9800 nM

# Source: patent publication US9278093B2, “Aldosterone synthase inhibitors” (Merck Sharp & Dohme Corp., priority 2012, dated 2016)
